This passage reports IC50 results from PubChem BioAssay AID1671246.

The term IC50 denotes the concentration at which inhibition is half-maximal.

In this assay the target is Casein kinase I isoform gamma-1 (Homo sapiens) (UniProt Q9HCP0). As to the kind of experiment: inhibition of human CK1 gamma 1 activity – biochemical, Z'-LYTE, FRET, protease-coupled, direct format, dose response (AID 1671246). The settings on record: recombinant CSNK1G1.
Casein kinase I isoform gamma-1 (Homo sapiens), sequence (Q9HCP0 whole entry, looked up, canonical isoform): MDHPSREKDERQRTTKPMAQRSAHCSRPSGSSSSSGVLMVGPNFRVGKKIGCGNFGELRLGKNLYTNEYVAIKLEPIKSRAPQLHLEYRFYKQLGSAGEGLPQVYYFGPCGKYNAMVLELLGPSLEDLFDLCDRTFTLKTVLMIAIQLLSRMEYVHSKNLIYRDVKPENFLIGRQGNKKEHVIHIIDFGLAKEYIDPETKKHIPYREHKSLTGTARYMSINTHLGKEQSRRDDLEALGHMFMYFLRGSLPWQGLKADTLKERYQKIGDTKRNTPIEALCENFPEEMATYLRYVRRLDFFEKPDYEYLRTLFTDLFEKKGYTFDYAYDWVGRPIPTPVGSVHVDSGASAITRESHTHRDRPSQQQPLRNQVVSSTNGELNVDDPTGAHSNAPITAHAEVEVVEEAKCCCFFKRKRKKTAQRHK

Consider `CN1C(=O)C2(Cc3cn(C45CC67SSC(CO)(C(=O)N6C4Nc4ccccc45)N(C)C7=O)c4ccccc34)SSC1(CO)C(=O)N2C` (stereo unspecified), for which the IC50 was 109 nM.
